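Grown in 96-well plates, cells were treated for 48 hours with each compound at five concentrations. Insufficient inhibition: endpoint recorded as highest concentration tested. Abbreviation: GI50, concentration required for 50% inhibition of growth. The concentration for full growth arrest is given as TGI.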
Each molecule was assayed on NCI-H226 lung (assay: inhibition of tumour cell growth, NCI panel, 48 h).
With `Cc1ccc(S(=O)OC2C3CC4CC(C3)CC2C4)cc1` (stereo not given) the TGI was > 100 µM.
In the case of `COc1ccc(-c2cc(=O)c3c(OC)c(OC)c(OC)c(OC)c3o2)cc1`, the TGI is reported as > 100 µM.
For `COc1cc2nc(NCCCCCNC(=O)c3ccco3)nc(N)c2cc1OC`, the TGI was 95.6 µM.
`C/C=C(\C)c1cc(O)c(C)c2c1Oc1cc(O)c(Cl)c(C)c1C(=O)O2` showed a TGI of 33.6 µM.
In the case of `COC(=O)C(C)(C)N=CN(C)C`, the TGI is reported as > 100 µM.
In the case of `O=c1[nH]cnc2c(C3NC(CO)C(O)C3O)c[nH]c12` (stereo not given), the GI50 is reported as > 100 µM and the TGI is reported as > 100 µM.
For `C[C@@H]1O[C@@H](OC[C@H]2O[C@@H](OCCc3ccc(O)c(O)c3)[C@H](O)[C@@H](O)[C@@H]2OC(=O)/C=C/c2ccc(O)c(O)c2)[C@H](O)[C@H](O)[C@H]1O`, the GI50 was > 100 µM and the TGI was > 100 µM.
In the case of `Cc1cc(N(CCC#N)CCC#N)ccc1/C=C1/N=C(c2ccccc2)N(N)C1=O`, the TGI is reported as > 100 µM.
For `CCOC1=C2N=C(Cc3ccccc3F)N=C2C(=O)c2ccccc21`, the TGI was > 100 µM.
`C=C1CCC2[C@@H](CCC3[C@]2(C)CCC[C@]3(C)C(=O)OC)[C@@H]1CC=O` (stereo not given in full) was tested, and the TGI was > 100 µM.
With `CCCCCCCCCCCCCP(=O)(O)NCC(N)=O` the TGI was > 100 µM.
For `CN1COc2c(n(C)c(=O)[nH]c2=O)C1`, the TGI was > 100 µM.
`CCCCCCN(N)C(=O)CC#N` was tested, and the TGI was > 100 µM.
`O=C(O)/C(Cl)=C(\Cl)C(=O)Nc1ccc(Cl)c(Cl)c1Cl` was tested, and the TGI was 35.5 µM.
For `COc1ccc(C(Cl)=C(c2ccc(OCCN(C)C)cc2)c2ccc(OCCN(C)C)cc2)cc1`, the TGI was 3.42 µM.
`CC1(C)C2CCC13CS(=O)(=O)N1O[C@]13C(=O)O2` (stereo not given in full) was tested, and the TGI was > 100 µM.

Each molecule was assayed on SNB-75 CNS (assay: inhibition of tumour cell growth, NCI panel, 48 h).
`Cc1nc2ccccc2c(/C=C/c2ccc(Br)cc2)c1C(=O)/C=C/c1ccccc1` was tested, and the GI50 was 1.73 µM and the TGI was 5.44 µM.
With `CC1CN1c1c(C(=O)/C=C/c2ccccc2)c(-c2ccccc2)nn(C)c1=O` (stereo not given) the TGI was 40 µM.
For `c1ccc(P(=Nc2ccccc2N=P(c2ccccc2)(c2ccccc2)c2ccccc2)(c2ccccc2)c2ccccc2)cc1`, the TGI was 2.09 µM.
In the case of `COCCOCOc1ccc(OCOCCOC)c2c1C(=O)c1ccccc1C2=O`, the TGI is reported as > 100 µM.
With `CCO/C=C1\N=C(c2ccccc2Br)OC1=O` the TGI was > 100 µM.
With `O=P1(Oc2ccccc2)C(c2ccccc2)C(c2ccccc2)=NN1c1ccccc1` (stereo not given) the TGI was > 100 µM.
For `CCOC(=O)C(=O)Nc1cc(Cl)ccc1Cl`, the TGI was > 100 µM.
`N#Cc1ccc(N=Cc2c([O-])ccc3ccccc23)cc1.[C-]#[O+].[C-]#[O+].[Ir]` showed a GI50 of 11 µM and a TGI of 24.9 µM.
`[N-]=[N+]=C1C(=O)C2CC3CC(C2)CC1C3` was tested, and the TGI was > 100 µM.
For `COC(=O)CC1NC(=O)C1C1(C)OCCO1` (stereo not given), the TGI was 97.7 µM.
`COC(CN1C=C(Sc2ccccc2)CC1)OC` showed a TGI of 52.7 µM.
In the case of `CN(C)CCC(/C=C/c1ccccc1)=N\Nc1ccc(Cl)cc1Cl`, the TGI is reported as 18.8 µM.
For `COc1ccc(C=O)c(NC(=O)C(C)C)c1`, the TGI was > 100 µM.
With `Cc1cc2c(c(C(=O)O)c1C)-c1cccc(F)c1C2=O` the TGI was > 100 µM.
For `Cc1ccc(NC(=O)c2ccccc2C(=O)O)cc1C`, the TGI was > 100 µM.
In the case of `Cc1ccc(S(=O)OC2C3CC4CC(C3)CC2C4)cc1` (stereo not given), the TGI is reported as > 100 µM.
With `COc1ccc(-c2cc(=O)c3c(OC)c(OC)c(OC)c(OC)c3o2)cc1` the TGI was > 100 µM.
For `CN(C)c1ccc(/C=C2\C=Cc3ccccc32)cc1`, the TGI was 57 µM.
`COc1cc2nc(NCCCCCNC(=O)c3ccco3)nc(N)c2cc1OC` showed a TGI of 54.2 µM.
For `C/C=C(\C)c1cc(O)c(C)c2c1Oc1cc(O)c(Cl)c(C)c1C(=O)O2`, the TGI was 53.3 µM.
With `COC(=O)C(C)(C)N=CN(C)C` the TGI was > 100 µM.
For `O=c1[nH]cnc2c(C3NC(CO)C(O)C3O)c[nH]c12` (stereo not given), the GI50 was > 100 µM and the TGI was > 100 µM.
For `C[C@@H]1O[C@@H](OC[C@H]2O[C@@H](OCCc3ccc(O)c(O)c3)[C@H](O)[C@@H](O)[C@@H]2OC(=O)/C=C/c2ccc(O)c(O)c2)[C@H](O)[C@H](O)[C@H]1O`, the GI50 was > 100 µM and the TGI was > 100 µM.
With `Cc1cc(N(CCC#N)CCC#N)ccc1/C=C1/N=C(c2ccccc2)N(N)C1=O` the TGI was 64.9 µM.
`CCOC1=C2N=C(Cc3ccccc3F)N=C2C(=O)c2ccccc21` was tested, and the TGI was > 100 µM.
With `C=C1CCC2[C@@H](CCC3[C@]2(C)CCC[C@]3(C)C(=O)OC)[C@@H]1CC=O` (stereo not given in full) the GI50 was 37.1 µM and the TGI was > 100 µM.
For `CCCCCCCCCCCCCP(=O)(O)NCC(N)=O`, the TGI was > 100 µM.
`CN1COc2c(n(C)c(=O)[nH]c2=O)C1` was tested, and the TGI was > 100 µM.
`CC1(C)OCC(C(O)C2OC(C)(C)OC2/C=N\O)O1` (stereo not given) was tested, and the TGI was > 100 µM.
With `CCCCCCN(N)C(=O)CC#N` the TGI was > 100 µM.
Work on `O=C(O)/C(Cl)=C(\Cl)C(=O)Nc1ccc(Cl)c(Cl)c1Cl` yielded a TGI of 34.8 µM.
`COc1ccc(C(Cl)=C(c2ccc(OCCN(C)C)cc2)c2ccc(OCCN(C)C)cc2)cc1` gave a TGI of 3.29 µM.
`CC1(C)C2CCC13CS(=O)(=O)N1O[C@]13C(=O)O2` (stereo not given in full) was tested, and the TGI was > 100 µM.

Each molecule was assayed on EKVX NSCLC (assay: inhibition of tumour cell growth, NCI panel, 48 h).
`Cc1nc2ccccc2c(/C=C/c2ccc(Br)cc2)c1C(=O)/C=C/c1ccccc1` gave a GI50 of 1.75 µM and a TGI of 3.32 µM.
`CC1CN1c1c(C(=O)/C=C/c2ccccc2)c(-c2ccccc2)nn(C)c1=O` (stereo not given) showed a TGI of 48.2 µM.
For `c1ccc(P(=Nc2ccccc2N=P(c2ccccc2)(c2ccccc2)c2ccccc2)(c2ccccc2)c2ccccc2)cc1`, the TGI was 15 µM.
With `COCCOCOc1ccc(OCOCCOC)c2c1C(=O)c1ccccc1C2=O` the TGI was > 100 µM.
In the case of `CCO/C=C1\N=C(c2ccccc2Br)OC1=O`, the TGI is reported as > 100 µM.
`O=P1(Oc2ccccc2)C(c2ccccc2)C(c2ccccc2)=NN1c1ccccc1` (stereo not given) was tested, and the TGI was > 100 µM.
For `CCOC(=O)C(=O)Nc1cc(Cl)ccc1Cl`, the TGI was > 100 µM.
`N#Cc1ccc(N=Cc2c([O-])ccc3ccccc23)cc1.[C-]#[O+].[C-]#[O+].[Ir]` gave a GI50 of 11.5 µM and a TGI of 25 µM.
With `[N-]=[N+]=C1C(=O)C2CC3CC(C2)CC1C3` the TGI was > 100 µM.
With `COC(=O)CC1NC(=O)C1C1(C)OCCO1` (stereo not given) the TGI was > 100 µM.
In the case of `COC(CN1C=C(Sc2ccccc2)CC1)OC`, the TGI is reported as > 100 µM.
`CN(C)CCC(/C=C/c1ccccc1)=N\Nc1ccc(Cl)cc1Cl` showed a TGI of 31.1 µM.
In the case of `COc1ccc(C=O)c(NC(=O)C(C)C)c1`, the TGI is reported as > 100 µM.
For `Cc1cc2c(c(C(=O)O)c1C)-c1cccc(F)c1C2=O`, the TGI was > 100 µM.
With `Cc1ccc(NC(=O)c2ccccc2C(=O)O)cc1C` the TGI was > 100 µM.
With `Cc1ccc(S(=O)OC2C3CC4CC(C3)CC2C4)cc1` (stereo not given) the TGI was > 100 µM.
For `COc1ccc(-c2cc(=O)c3c(OC)c(OC)c(OC)c(OC)c3o2)cc1`, the TGI was > 100 µM.
For `COc1cc2nc(NCCCCCNC(=O)c3ccco3)nc(N)c2cc1OC`, the TGI was > 100 µM.
Work on `C/C=C(\C)c1cc(O)c(C)c2c1Oc1cc(O)c(Cl)c(C)c1C(=O)O2` yielded a TGI of 61.2 µM.
For `COC(=O)C(C)(C)N=CN(C)C`, the TGI was > 100 µM.
In the case of `O=c1[nH]cnc2c(C3NC(CO)C(O)C3O)c[nH]c12` (stereo not given), the GI50 is reported as > 100 µM and the TGI is reported as > 100 µM.

From PubChem BioAssay (NCI)
